In patent publication US20240101602A1, “ANTIMICROBIAL PEPTIDES AND METHOD OF PREVENTING OR TREATING INFECTION BY USING THE SAME” (priority 2020, published 2024):
Converted amounts (≈) assume the structure as drawn. Read-outs that look alike come from different tables or passages of the source. Non-standard residues stand in square brackets, D forms with d. Residues, ends and D or L forms follow the SMILES beside them. *: point of attachment. Palmitoyl = CCCCCCCCCCCCCCCC(=O)*; Octanoyl = CCCCCCCC(=O)*; Orn = NCCC[C@H](N)C(=O)O; Hexanoyl = CCCCCC(=O)*; Butyryl = CCCC(=O)*

What was measured:
Botrytis cinerea = format: cell-based
Description: (§1) The experiments were conducted in an optimal minimal medium for each pathogen. The media and growth conditions were described in Tables 2 and 3. MIC and MBC values were determined following the procedures described above. […] Fifty microliters of serially diluted peptides (2-fold the final concentration) were added in a 96-well polystyrene plate with 50 μL of the fungal spore suspension. […] The plates were incubated at an optimal temperature without shaking. […] MFC was determined as the lowest peptide concentration at which no fungal growth was observed.

Cgl FST02 = format: cell-based, Colletotricum gloeosporioides; conditions: Cgl FST02; optimal minimal media (Table 11)
Description: as §1

[1] = system: Pseudomonas aeruginosa ATCC 9027
[2] = system: Staphylococcus aureus BCRC 10777
[3] = system: Staphylococcus epidermidis ATCC 14990
[4] = system: Klebsiella pneumonia NTUH-K2044
Eco DH5α = test: MIC and MBC by serial dilution in 96-well plate; format: cell-based, Escherichia coli; conditions: Table 13
Description: The effect of peptide length on the antimicrobial activity was investigated by deciding the minimal inhibitory concentration (MIC) and minimal bactericidal concentration (MBC) for each peptide against the pathogen with the media and growth conditions of phytopathogenic bacteria and E. coli as described in Table 1. Single bacterial colony grown on an optimal rich agar medium was picked, and each grew in 3 mL of the same rich liquid medium for 4 to 6 h.
For experiments carried out in the rich medium, the bacterial broth culture was then diluted in the same medium to give a final concentration of OD600=0.08, and then further diluted 100 folds in the same medium.
For experiments carried out in the minimal medium, the bacterial cells were collected from the bacterial liquid culture by centrifugation, re-suspended in an optimal minimal medium to give a final concentration of OD600=0.08, and then further diluted 100 folds in the same minimal medium.
Fifty microliters of serially diluted peptides (2-fold the final concentration) were added in a 96-well polystyrene plate with 50 μL of the bacterial culture. The final concentrations of peptides were 0, 2, 4, 8, 16 and 32 μg/mL. The plates were incubated at an optimal temperature without shaking.
MBC was determined as the lowest peptide concentration at which no colonies formed.

[5] = system: Salmonella typhimurium NCHU 15721
[6] = system: Pectobacterium carotovorum subsp. carotovorum; format: cell-based
Description: (§2) The effect of peptide length on the antimicrobial activity was investigated by deciding the minimal inhibitory concentration (MIC) and minimal bactericidal concentration (MBC) for each peptide against the pathogen with the media and growth conditions of phytopathogenic bacteria and E. coli as described in Table 1. Single bacterial colony grown on an optimal rich agar medium was picked, and each grew in 3 mL of the same rich liquid medium for 4 to 6 h. For experiments carried out in the rich medium, the bacterial broth culture was then diluted in the same medium to give a final concentration of OD600=0.08, and then further diluted 100 folds in the same medium. For experiments carried out in the minimal medium, the bacterial cells were collected from the bacterial liquid culture by centrifugation, re-suspended in an optimal minimal medium to give a final concentration of OD600=0.08, and then further diluted 100 folds in the same minimal medium. Fifty microliters of serially diluted peptides (2-fold the final concentration) were added in a 96-well polystyrene plate with 50 μL of the bacterial culture. […] The plates were incubated at an optimal temperature without shaking. […] MBC was determined as the lowest peptide concentration at which no colonies formed. The experiments were conducted in an optimal minimal medium for each pathogen. The media and growth conditions were described in Tables 2 and 3. MIC and MBC values were determined following the procedures described above. […] Fifty microliters of serially diluted peptides (2-fold the final concentration) were added in a 96-well polystyrene plate with 50 μL of the fungal spore suspension.

Erwinia chrysanthemi = format: cell-based
Description: as §2

[7] = system: Cryptococcus neoformans T1 (fluconazole-resistant)
[8] = system: Cryptococcus neoformans H99
[9] = system: Cryptococcus neoformans 89-610 (fluconazole-resistant)
[10] = system: Cryptococcus deuterogattii R265
[11] = Bc, optimal minimal media (Table 11)
[12] = Salmonella typhimurium NCHU 15721
[13] = Pseudomonas aeruginosa ATCC 9027

Compound	MBC ([1]; ATCC 9027)	MIC ([1]; ATCC 9027)	MBC [2]	MIC [2]	MBC [3]	MIC [3]	MBC [4]	MIC [4]	further results
Stearyl-WKKLKKLLKKLKKL-NH2 (stearyl-WKKLKKLLKKLKKL-NH2) [pepD2S, 11]	–	–	–	–	–	–	–	–	MFC (Botrytis cinerea; [11]): — (“—” indicates no antimicrobial activity being detected at the highest peptide concentration (32 μg/mL) tested in this study.); MIC (Botrytis cinerea; [11]): — (“—” indicates no antimicrobial activity being detected at the highest peptide concentration (32 μg/mL) tested in this study.); MFC (Cgl FST02): — (“—” indicates no antimicrobial activity being detected at the highest peptide concentration (32 μg/mL) tested in this study.); MIC (Cgl FST02): — (“—” indicates no antimicrobial activity being detected at the highest peptide concentration (32 μg/mL) tested in this study.)
Ac-WKKLKKFLKKL-NH2 [pepD3-7F]	8 µg/mL	4 µg/mL	–	–	–	–	–	–	–
CCCCCCCCCCCCCCCC(=O)N[C@@H](Cc1c[nH]c2ccccc12)C(=O)N[C@@H](CCCCN)C(=O)N[C@@H](CCCCN)C(=O)N[C@@H](CC(C)C)C(=O)N[C@@H](CCCCN)C(=O)N[C@@H](CCCCN)C(=O)N[C@@H](CC(C)C)C(=O)N[C@@H](CC(C)C)C(=O)N[C@@H](CCCCN)C(=O)N[C@@H](CCCCN)C(=O)N[C@@H](CC(C)C)C(=O)N[C@@H](CCCCN)C(=O)N[C@@H](CCCCN)C(=O)N[C@@H](CC(C)C)C(N)=O [pepD2P] (Palmitoyl-WKKLKKLLKKLKKL-NH2)	–	–	–	–	–	–	–	–	MFC (Botrytis cinerea): 6.4 µg/mL (≈ 3.15 µM); MIC (Botrytis cinerea): 6.4 µg/mL (≈ 3.15 µM)
Ac-WRRLRRLLRRLRRL-NH2 [pepR2]	–	–	16 µg/mL	16 µg/mL	16 µg/mL	16 µg/mL	32 µg/mL	32 µg/mL	–
Ac-WKKVKKVVKKVKKV-NH2 [pepV2]	–	–	–	–	–	–	–	–	MBC (Eco DH5α): 32.0 µg/mL; MIC (Eco DH5α): 32.0 µg/mL
Ac-WKKIKKIIKKIKKI-NH2 [pepI2]	4 µg/mL	4 µg/mL	32 µg/mL	32 µg/mL	32 µg/mL	16 µg/mL	32 µg/mL	16 µg/mL	MBC [5, 12]: 16 µg/mL; MIC [5, 12]: 8 µg/mL; MBC [6]: 1.8 µg/mL; MIC [6]: 1.5 µg/mL; MBC (Erwinia chrysanthemi): 16.0 µg/mL; MIC (Erwinia chrysanthemi): 16.0 µg/mL; MBC (Eco DH5α): 5.3 µg/mL; MIC (Eco DH5α): 5.3 µg/mL
Ac-WKKLRKLLKKL-NH2 [pepD3-5R]	–	–	–	–	–	–	–	–	MBC [1, 13]: 8 µg/mL; MIC [1, 13]: 4 µg/mL
CC(=O)N[C@@H](Cc1c[nH]c2ccccc12)C(=O)N[C@H](CCCCN)C(=O)N[C@H](CCCCN)C(=O)N[C@H](CC(C)C)C(=O)N[C@H](CCCCN)C(=O)N[C@H](CCCCN)C(=O)N[C@H](CC(C)C)C(=O)N[C@H](CC(C)C)C(=O)N[C@H](CCCCN)C(=O)N[C@H](CCCCN)C(=O)N[C@H](CC(C)C)C(N)=O [pepdD3, Ac-Wkklkkllkkl-NH2] (Ac-W[dK][dK][dL][dK][dK][dL][dL][dK][dK][dL]-NH2)	–	–	–	–	–	–	–	–	MIC ([7]; Cryptococcus neoformans T1 (fluconazole-resistant)): 4 µg/mL (≈ 2.73 µM); MFC ([7]; T1 (fluconazole-resistant)): 4 µg/mL (≈ 2.73 µM); MIC ([8]; Cryptococcus neoformans H99): 8 µg/mL (≈ 5.45 µM); MFC ([8]; H99): 8 µg/mL (≈ 5.45 µM); MFC ([9]; 89-610 (fluconazole-resistant)): 4 µg/mL (≈ 2.73 µM); MIC ([9]; Cryptococcus neoformans 89-610 (fluconazole-resistant)): 4 µg/mL (≈ 2.73 µM); MFC [10]: 4 µg/mL (≈ 2.73 µM); MIC ([10]; Cryptococcus deuterogattii R265): 4 µg/mL (≈ 2.73 µM)
CCCC(=O)N[C@@H](Cc1c[nH]c2ccccc12)C(=O)N[C@@H](CCCCN)C(=O)N[C@@H](CCCCN)C(=O)N[C@@H](CC(C)C)C(=O)N[C@@H](CCCCN)C(=O)N[C@@H](CCCCN)C(=O)N[C@@H](CC(C)C)C(=O)N[C@@H](CC(C)C)C(=O)N[C@@H](CCCCN)C(=O)N[C@@H](CCCCN)C(=O)N[C@@H](CC(C)C)C(N)=O [pepD3B] (Butyryl-WKKLKKLLKKL-NH2)	–	–	16 µg/mL (≈ 10.7 µM)	16 µg/mL (≈ 10.7 µM)	16 µg/mL (≈ 10.7 µM)	16 µg/mL (≈ 10.7 µM)	16 µg/mL (≈ 10.7 µM)	16 µg/mL (≈ 10.7 µM)	–
CC(=O)N[C@@H](Cc1c[nH]c2ccccc12)C(=O)N[C@@H](CCCN)C(=O)N[C@@H](CCCN)C(=O)N[C@@H](CC(C)C)C(=O)N[C@@H](CCCN)C(=O)N[C@@H](CCCN)C(=O)N[C@@H](CC(C)C)C(=O)N[C@@H](CC(C)C)C(=O)N[C@@H](CCCN)C(=O)N[C@@H](CCCN)C(=O)N[C@@H](CC(C)C)C(=O)N[C@@H](CCCN)C(=O)N[C@@H](CCCN)C(=O)N[C@@H](CC(C)C)C(N)=O [pepO2, Ac-WOOLOOLLOOLOOL-NH2] (Ac-W[Orn][Orn]L[Orn][Orn]LL[Orn][Orn]L[Orn][Orn]L-NH2)	–	–	32 µg/mL (≈ 18.6 µM)	32 µg/mL (≈ 18.6 µM)	32 µg/mL (≈ 18.6 µM)	32 µg/mL (≈ 18.6 µM)	32 µg/mL (≈ 18.6 µM)	16 µg/mL (≈ 9.28 µM)	–
CCCCCCCC(=O)N[C@@H](Cc1c[nH]c2ccccc12)C(=O)N[C@@H](CCCCN)C(=O)N[C@@H](CCCCN)C(=O)N[C@@H](CC(C)C)C(=O)N[C@@H](CCCCN)C(=O)N[C@@H](CCCCN)C(=O)N[C@@H](CC(C)C)C(=O)N[C@@H](CC(C)C)C(=O)N[C@@H](CCCCN)C(=O)N[C@@H](CCCCN)C(=O)N[C@@H](CC(C)C)C(N)=O [pepD3O] (Octanoyl-WKKLKKLLKKL-NH2)	–	–	8 µg/mL (≈ 5.16 µM)	8 µg/mL (≈ 5.16 µM)	8 µg/mL (≈ 5.16 µM)	8 µg/mL (≈ 5.16 µM)	16 µg/mL (≈ 10.3 µM)	16 µg/mL (≈ 10.3 µM)	–
Ac-WKKLKKALKKL-NH2 [pepD3-7A]	8 µg/mL	4 µg/mL	–	–	–	–	–	–	–
Ac-WKKLHKLLKKL-NH2 [pepD3-5H]	8 µg/mL	4 µg/mL	–	–	–	–	–	–	–
CCCCCC(=O)N[C@@H](Cc1c[nH]c2ccccc12)C(=O)N[C@@H](CCCCN)C(=O)N[C@@H](CCCCN)C(=O)N[C@@H](CC(C)C)C(=O)N[C@@H](CCCCN)C(=O)N[C@@H](CCCCN)C(=O)N[C@@H](CC(C)C)C(=O)N[C@@H](CC(C)C)C(=O)N[C@@H](CCCCN)C(=O)N[C@@H](CCCCN)C(=O)N[C@@H](CC(C)C)C(N)=O [pepD3H] (Hexanoyl-WKKLKKLLKKL-NH2)	8 µg/mL (≈ 5.25 µM)	4 µg/mL (≈ 2.63 µM)	8 µg/mL (≈ 5.25 µM)	8 µg/mL (≈ 5.25 µM)	16 µg/mL (≈ 10.5 µM)	16 µg/mL (≈ 10.5 µM)	16 µg/mL (≈ 10.5 µM)	16 µg/mL (≈ 10.5 µM)	MBC ([5]; murium NCHU 15721): 32 µg/mL (≈ 21 µM); MIC ([5]; murium NCHU 15721): 16 µg/mL (≈ 10.5 µM)
Ac-WKKLKKILKKL-NH2 [pepD3-7I]	4 µg/mL	4 µg/mL	–	–	–	–	–	–	–
Ac-WKKLKKMLKKL-NH2 [pepD3-7M]	8 µg/mL	4 µg/mL	–	–	–	–	–	–	–
